From PubChem BioAssay (NCI)
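In this assay, cells in 96-well plates receive the compound at five concentrations for 48 hours. Endpoints are linearly interpolated between the surrounding concentrations. GI50 is the concentration that inhibits growth by half. TGI: concentration producing complete growth inhibition.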

Columns and labels:
Test in all cases: inhibition of tumour cell growth, NCI panel, 48 h
786-0 renal = tested on: 786-0 renal
A498 renal = tested on: A498 renal
A549 NSCLC = tested on: A549 NSCLC
ACHN renal = tested on: ACHN renal
BT-549 breast = tested on: BT-549 breast
CAKI-1 renal = tested on: CAKI-1 renal
CCRF-CEM leukemia = tested on: CCRF-CEM leukemia
COLO 205 colon = tested on: COLO 205 colon
DU-145 prostate = tested on: DU-145 prostate
EKVX NSCLC = tested on: EKVX NSCLC
HCC-2998 colon = tested on: HCC-2998 colon
HCT-116 colon = tested on: HCT-116 colon
HCT-15 colon = tested on: HCT-15 colon
HL-60(TB) leukemia = tested on: HL-60(TB) leukemia
HOP-62 NSCLC = tested on: HOP-62 NSCLC
HOP-92 NSCLC = tested on: HOP-92 NSCLC
HS 578T breast = tested on: HS 578T breast
HT29 colon = tested on: HT29 colon
IGROV1 ovarian = tested on: IGROV1 ovarian
K-562 leukemia = tested on: K-562 leukemia
KM12 colon = tested on: KM12 colon
LOX IMVI melanoma = tested on: LOX IMVI melanoma
M14 melanoma = tested on: M14 melanoma
MALME-3M melanoma = tested on: MALME-3M melanoma
MCF7 breast = tested on: MCF7 breast
MDA-MB-231 breast = tested on: MDA-MB-231 breast
MDA-MB-435 = tested on: MDA-MB-435
MOLT-4 leukemia = tested on: MOLT-4 leukemia
NCI-H226 lung = tested on: NCI-H226 lung
NCI-H23 lung = tested on: NCI-H23 lung
NCI-H460 lung = tested on: NCI-H460 lung
NCI-H522 lung = tested on: NCI-H522 lung
NCI/ADR-RES ovarian = tested on: NCI/ADR-RES ovarian
OVCAR-3 ovarian = tested on: OVCAR-3 ovarian
OVCAR-4 ovarian = tested on: OVCAR-4 ovarian
OVCAR-5 ovarian = tested on: OVCAR-5 ovarian
OVCAR-8 ovarian = tested on: OVCAR-8 ovarian
PC-3 prostate = tested on: PC-3 prostate
RPMI-8226 leukemia = tested on: RPMI-8226 leukemia
RXF 393 renal = tested on: RXF 393 renal
SF-268 CNS = tested on: SF-268 CNS
SF-295 CNS = tested on: SF-295 CNS
SF-539 CNS = tested on: SF-539 CNS
SK-MEL-28 melanoma = tested on: SK-MEL-28 melanoma
SK-MEL-5 melanoma = tested on: SK-MEL-5 melanoma
SN12C renal = tested on: SN12C renal
SNB-19 CNS = tested on: SNB-19 CNS
SNB-75 CNS = tested on: SNB-75 CNS
SW-620 colon = tested on: SW-620 colon
T-47D breast = tested on: T-47D breast
TK-10 renal = tested on: TK-10 renal
U251 CNS = tested on: U251 CNS
UACC-257 melanoma = tested on: UACC-257 melanoma
UACC-62 melanoma = tested on: UACC-62 melanoma
UO-31 renal = tested on: UO-31 renal

For `S=c1snc2n1CCN2`, the GI50 (786-0 renal) was 91.7 µM, the TGI (786-0 renal) was over 100 µM and the GI50 (A498 renal) was 65 µM. It also gave a TGI (A498 renal) of over 100 µM, a GI50 (A549 NSCLC) of over 100 µM and a TGI (A549 NSCLC) of over 100 µM. The GI50 (ACHN renal) was over 100 µM, the TGI (ACHN renal) was over 100 µM and the GI50 (BT-549 breast) was over 100 µM. For the same compound, the TGI (BT-549 breast) was over 100 µM, the GI50 (CAKI-1 renal) was over 100 µM and the TGI (CAKI-1 renal) was over 100 µM. It also gave a GI50 (CCRF-CEM leukemia) of 33.4 µM, a TGI (CCRF-CEM leukemia) of over 100 µM and a GI50 (COLO 205 colon) of 25.2 µM. The TGI (COLO 205 colon) was over 100 µM, the GI50 (DU-145 prostate) was 91.3 µM and the TGI (DU-145 prostate) was over 100 µM. The GI50 (EKVX NSCLC) was over 100 µM, the TGI (EKVX NSCLC) was over 100 µM and the GI50 (HCC-2998 colon) was 19.3 µM. It also gave a TGI (HCC-2998 colon) of 74.7 µM, a GI50 (HCT-116 colon) of 22.6 µM and a TGI (HCT-116 colon) of over 100 µM. For the same compound, the GI50 (HCT-15 colon) was over 100 µM, the TGI (HCT-15 colon) was over 100 µM and the GI50 (HL-60(TB) leukemia) was 48 µM. The TGI (HL-60(TB) leukemia) was over 100 µM, the GI50 (HOP-62 NSCLC) was over 100 µM and the TGI (HOP-62 NSCLC) was over 100 µM. The GI50 (HOP-92 NSCLC) was over 100 µM, the TGI (HOP-92 NSCLC) was over 100 µM and the GI50 (HS 578T breast) was over 100 µM. It also gave a TGI (HS 578T breast) of over 100 µM, a GI50 (HT29 colon) of 65.9 µM and a TGI (HT29 colon) of over 100 µM. For the same compound, the GI50 (IGROV1 ovarian) was over 100 µM, the TGI (IGROV1 ovarian) was over 100 µM and the GI50 (K-562 leukemia) was over 100 µM. The TGI (K-562 leukemia) was over 100 µM, the GI50 (KM12 colon) was over 100 µM and the TGI (KM12 colon) was over 100 µM. The GI50 (LOX IMVI melanoma) was 81.7 µM, the TGI (LOX IMVI melanoma) was over 100 µM and the GI50 (M14 melanoma) was over 100 µM. For the same compound, the TGI (M14 melanoma) was over 100 µM, the GI50 (MALME-3M melanoma) was over 100 µM and the TGI (MALME-3M melanoma) was over 100 µM. For the same compound, the GI50 (MCF7 breast) was 39.3 µM, the TGI (MCF7 breast) was over 100 µM and the GI50 (MDA-MB-231 breast) was 91.1 µM. For the same compound, the TGI (MDA-MB-231 breast) was over 100 µM, the GI50 (MDA-MB-435) was over 100 µM and the TGI (MDA-MB-435) was over 100 µM. It also gave a GI50 (MOLT-4 leukemia) of 32.3 µM, a TGI (MOLT-4 leukemia) of over 100 µM and a GI50 (NCI-H226 lung) of 32.3 µM. For the same compound, the TGI (NCI-H226 lung) was over 100 µM, the GI50 (NCI-H23 lung) was over 100 µM and the TGI (NCI-H23 lung) was over 100 µM. It also gave a GI50 (NCI-H460 lung) of 54.9 µM, a TGI (NCI-H460 lung) of over 100 µM and a GI50 (NCI-H522 lung) of 40.9 µM. For the same compound, the TGI (NCI-H522 lung) was over 100 µM, the GI50 (NCI/ADR-RES ovarian) was over 100 µM and the TGI (NCI/ADR-RES ovarian) was over 100 µM. For the same compound, the GI50 (OVCAR-3 ovarian) was over 100 µM, the TGI (OVCAR-3 ovarian) was over 100 µM and the GI50 (OVCAR-4 ovarian) was over 100 µM. For the same compound, the TGI (OVCAR-4 ovarian) was over 100 µM, the GI50 (OVCAR-5 ovarian) was over 100 µM and the TGI (OVCAR-5 ovarian) was over 100 µM. It also gave a GI50 (OVCAR-8 ovarian) of over 100 µM, a TGI (OVCAR-8 ovarian) of over 100 µM and a GI50 (PC-3 prostate) of 65.4 µM. The TGI (PC-3 prostate) was over 100 µM, the GI50 (RPMI-8226 leukemia) was 42.2 µM and the TGI (RPMI-8226 leukemia) was over 100 µM. For the same compound, the GI50 (RXF 393 renal) was over 100 µM, the TGI (RXF 393 renal) was over 100 µM and the GI50 (SF-268 CNS) was over 100 µM. It also gave a TGI (SF-268 CNS) of over 100 µM, a GI50 (SF-295 CNS) of over 100 µM and a TGI (SF-295 CNS) of over 100 µM. For the same compound, the GI50 (SF-539 CNS) was over 100 µM, the TGI (SF-539 CNS) was over 100 µM and the GI50 (SK-MEL-28 melanoma) was 64.4 µM. It also gave a TGI (SK-MEL-28 melanoma) of over 100 µM, a GI50 (SK-MEL-5 melanoma) of 58.2 µM and a TGI (SK-MEL-5 melanoma) of over 100 µM. It also gave a GI50 (SN12C renal) of 10.6 µM, a TGI (SN12C renal) of 86.8 µM and a GI50 (SNB-19 CNS) of over 100 µM. For the same compound, the TGI (SNB-19 CNS) was over 100 µM, the GI50 (SNB-75 CNS) was over 100 µM and the TGI (SNB-75 CNS) was over 100 µM. For the same compound, the GI50 (SW-620 colon) was 40.5 µM, the TGI (SW-620 colon) was over 100 µM and the GI50 (T-47D breast) was 0.85 µM. The TGI (T-47D breast) was 37.4 µM, the GI50 (TK-10 renal) was over 100 µM and the TGI (TK-10 renal) was over 100 µM. It also gave a GI50 (U251 CNS) of over 100 µM, a TGI (U251 CNS) of over 100 µM and a GI50 (UACC-257 melanoma) of over 100 µM. It also gave a TGI (UACC-257 melanoma) of over 100 µM, a GI50 (UACC-62 melanoma) of 95.5 µM and a TGI (UACC-62 melanoma) of over 100 µM. The GI50 (UO-31 renal) was over 100 µM and the TGI (UO-31 renal) was over 100 µM.
